Patent publication US10093629B2, “Heterocyclic compounds and their use as retinoid-related orphan receptor (ROR) gamma-T inhibitors” (Takeda Pharmaceutical Company Limited, priority 2014, dated 2018)
Where two headings read alike, the source gives them in different places.

Columns and labels:
[1] = test system: IL-17 production in human blood; assay: Effect on IL-17 production in human blood; assay type: cell-based; conditions: 72 h; 10 μM test compound; human peripheral blood, IL-23 and Dynabeads stimulation, 3 days; read-out: percent inhibition at 10 μM (IL-17 production)
Experimental: Effect on IL-17 Production in Human Blood
The inhibitory effect of the test compound on IL-17 production in human blood was evaluated as follows. First, 150 μL of peripheral blood collected from healthy individuals using heparinized vacuum blood collection tubes was dispensed into each well of a 96-well plate (Corning), and 45 μL of RPMI 1640 medium (Gibco) containing 10% fetal bovine serum (FBS, Hyclone) and 30 μL of the test compound diluted with the medium were added to each well. The plate was then cultured for 30 min at 37° C. The cells were subsequently stimulated by adding 30 μL of 100 ng/mL human IL-23 (R&D) and 45 μL of Dynabeads Human (Invitrogen) to each well and culturing the plate for 3 days at 37° C. In wells without stimulation, 75 μL of RPMI 1640 medium containing 10% FBS was added instead of the IL-23 and Dynabeads solution. After culturing for 3 days, the culture supernatant was collected, and the amount of IL-17 in the supernatant was measured using an IL-17 ELISA kit (R&D).
The results (percent inhibition of IL-17 production with 10 μM of the test compound) measured by the above-mentioned method are shown in Table 8.

IL-17A gene expression = assay: Effect on IL-23-induced cytokine expression in mice; assay type: in vivo, mouse; conditions: 10 mg/kg oral, 30 min before and 8 hr after IL-23; ear of Balb/c mice; versus the negative control group
Experimental: Effect on IL-23-Induced Cytokine Expression in Mice
A mouse IL-23 solution (500 ng/10 μL, prepared by Takeda Pharmaceutical Company Limited) or PBS (10 μL, negative control group) was administered intradermally in the ear of Balb/c mice (Charles River Japan, male, 7 weeks old). Twenty-four hr after administration, the ear was resected under isoflurane anesthesia. The test compound was suspended in 0.5% methylcellulose and administered orally 30 min before and 8 hr after IL-23 administration.
RNA extraction from the ear tissue and quantitative PCR were performed as follows. Specifically, ear tissue 5 mm in diameter was punched from an area of the resected ear centering on the IL-23 injection site, and the tissue was immersed in RNAlater (QIAGEN) for at least 18 hr. The RNAlater-treated ear tissue was homogenized in 350 μL of RLT buffer (RNeasy mini kit, QIAGEN) and treated (55° C., 10 min) with Proteinase K (QIAGEN). Total RNA was then extracted according to the RNeasy mini kit protocol. The RNA thus obtained was then reverse transcribed into cDNA using the High-Capacity RNA-to-cDNA kit (Applied Biosystems), and the amount of each gene expressions was measured by real-time PCR (Viia7™, Applied Biosystems). The PCR buffer used was TaqMan Fast Advanced Master Mix (Applied Biosystems), and TaqMan Gene Expression Assays (Applied Biosystems) Mm00439618_m1 (IL-17A) and 4352341E (β-actin) were used for each gene detection. The IL-17A gene expression level was normalized to the β-actin gene expression level, and the percent inhibition of IL-17A gene expression with the test compound was then calculated.
The results (percent inhibition of IL-17A gene expression with oral administration of the test compound) measured by the above-mentioned method are shown in Table 9.

RORγt [2] = target: T1, RORγt (Homo sapiens, UniProt P51449); assay: Cofactor recruitment test (Alpha Screen, biotinylated SRC-1 peptide); assay type: biochemical; conditions: read-out: signal value inhibitory rate at test compound 1 μM
T1 sequence (P51449 1-497 isoform P51449-2): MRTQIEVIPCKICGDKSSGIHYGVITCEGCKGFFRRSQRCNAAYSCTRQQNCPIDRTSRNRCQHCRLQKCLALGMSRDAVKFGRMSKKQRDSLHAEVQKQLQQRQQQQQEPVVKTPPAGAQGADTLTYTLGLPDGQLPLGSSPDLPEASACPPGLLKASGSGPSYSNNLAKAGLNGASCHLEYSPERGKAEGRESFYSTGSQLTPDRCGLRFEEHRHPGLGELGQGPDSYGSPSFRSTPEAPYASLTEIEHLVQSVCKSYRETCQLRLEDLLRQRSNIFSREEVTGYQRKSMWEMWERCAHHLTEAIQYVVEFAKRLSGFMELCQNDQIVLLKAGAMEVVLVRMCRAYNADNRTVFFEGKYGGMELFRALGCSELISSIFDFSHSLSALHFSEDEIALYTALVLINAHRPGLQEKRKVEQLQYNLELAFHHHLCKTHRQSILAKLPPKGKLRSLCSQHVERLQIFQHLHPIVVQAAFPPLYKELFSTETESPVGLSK
Experimental: Cofactor Recruitment Test
Cofactor recruitment test was performed by Alpha Screen (Histidine Detection Kit, PerkinElmer) method. First, a test compound was diluted with an assay buffer (50 mM Tris-HCl (pH 7.5), 50 mM KCl, 1 mM DTT, 0.1% BSA) and added to a 384 well plate by 5 μL. […] The mixture was stood in a dark place for 1 hr, and the signal value was measured by Envision (PerkinElmer).

RORγt [3] = target: T1, RORγt; assay: Jurkat reporter test (human IL-17 ROR response element luciferase, RORγt vector); assay type: cell-based; conditions: test compound 3 μM, Jurkat cells, read-out: luminescence level inhibitory rate at test compound 3 μM
Experimental: The Jurkat cells used for the reporter test were cultured in a culture medium (RPMI (Invitrogen), 10% FCS (AusGeneX), 100 U/mL penicillin, 100 μg/mL streptomycin). On the day of the test, 4×10^7 cells were recovered by a centrifugal operation (1000 rpm, 5 min.) and suspended in PBS (phosphate buffered saline) (Invitrogen). Thereafter, the cells were recovered again by a centrifugal operation, and suspended in 2 mL of R buffer (NEON transfection kit, Invitrogen). […] Gene transfer was performed by Electroporation apparatus (NEON, Invitrogen) under the conditions of pulse voltage 1350 V, interval 10 milliseconds, number of times 3. The cells after gene transfer were suspended in 40 mL of a reaction medium (RPMI, 10% Lipid reduced FCS (HyClone), 10 mM HEPES (pH 7.5), 100 U/mL penicillin, 100 μg/mL streptomycin, 5 μM lovastatin), and plated in a 96 well plate by 90 μL. A test compound diluted with the reaction medium was added by 10 μL, and the cells were cultured overnight in an incubator. Bright-Glo (Promega) was added by 100 μL, and the mixture was stirred at room temperature for 10 min, and the luminescence level was measured by Envision (PerkinElmer).

RORγt [4] = target: T1, RORγt; assay: RORγt binding test using fluorescent-labeled synthetic ligand (TR-FRET); conditions: read-out: binding inhibitory rate of fluorescent-labeled synthetic ligand to RORγt at test compound 1 μM
Experimental: RORγt Binding Test using Fluorescent-Labeled Synthetic Ligand
The binding activity of the test compound to RORγt was measured by a time resolved fluorescence resonance energy transfer method (TR-FRET) utilizing histidine-tagged RORγt, fluorescent-labeled synthetic ligand and terbium-labeled anti-histidine tag antibody (Invitrogen). First, a test compound diluted with an assay buffer (20 mM Tris-HCl (pH 7.5), 100 mM NaCl, 1 mM DTT, 0.1% BSA) was added to a 384 well plate by 3 μL. Then, RORγt diluted with an assay buffer to 240 nM was added by 3 μL, after which fluorescent-labeled synthetic ligand diluted with the assay buffer to 12 μM was added by 3 μL, and the mixture was stood at room temperature for 20 min. Thereafter, a terbium-labeled anti-histidine tag antibody diluted with the assay buffer to 8 nM was added by 3 μL. The mixture was stood at room temperature for 20 min, and fluorescence intensity (excitation wavelength 320 nm, fluorescence wavelength 520 nm, delay time 100 microseconds) was measured by Envision (PerkinElmer).

inhibition at 1 µM (RORγt [2]; test compound 1 μM) [%]	inhibition at 3 µM (RORγt [3]; Jurkat) [%]	inhibition at 1 µM (RORγt [4]; test compound 1 μM) [%]	Compound	inhibition at 10 µM [1] [%]	percent inhibition of IL-17A gene expression (IL-17A gene expression) [%]	inhibition at 1 µM (RORγt [2]) [%]	inhibition at 3 µM (RORγt [3]) [%]	inhibition at 1 µM (RORγt [4]) [%]
			COc1ccc2c(c1)CCN(C(=O)C1CC(CC(=O)O)C1)[C@H]2C(=O)Nc1cc(F)c([Si](C)(C)C)c(F)c1 (stereo partly drawn) [Example 4, (3-(((1R)-1-((3,5-difluoro-4-(trimethylsilyl)phenyl)carbamoyl)-6-methoxy-3,4-dihydroisoquinolin-2(1H)-yl)carbonyl)cyclobutyl)acetic acid]	88.3	86	94	100	102
			COc1ccc2c(c1)CCN(C(=O)[C@H]1C[C@@H](C(=O)O)C1)[C@H]2C(=O)Nc1cc(F)c([Si](C)(C)C)c(F)c1 [Example 5, cis-3-(((1R)-1-((3,5-difluoro-4-(trimethylsilyl)phenyl)carbamoyl)-6-methoxy-3,4-dihydroisoquinolin-2(1H)-yl)carbonyl)cyclobutanecarboxylic acid]	88.6	57	93	100	102
			CCOc1ccc2c(c1)CCN(C(=O)[C@H]1C[C@@H](C(=O)O)C1)[C@H]2C(=O)Nc1cc(F)c([Si](C)(C)C)c(F)c1 [Example 8, cis-3-(((1R)-1-((3,5-difluoro-4-(trimethylsilyl)phenyl)carbamoyl)-6-ethoxy-3,4-dihydroisoquinolin-2(1H)-yl)carbonyl)cyclobutanecarboxylic acid]	82.9	72	90	100	102
			COc1ccc2c(n1)CCN(C(=O)[C@H]1C[C@@H]1CC(=O)O)[C@H]2C(=O)Nc1cc(F)c([Si](C)(C)C)c(F)c1 [Example 13, ((1R,2S)-2-(((5R)-5-((3,5-difluoro-4-(trimethylsilyl)phenyl)carbamoyl)-2-methoxy-7,8-dihydro-1,6-naphthyridin-6(5H)-yl)carbonyl)cyclopropyl)acetic acid]		91	83	104	102
70	97	101	CCOCC(C)(C)c1c(F)cc(NC(=O)[C@H]2c3ccc(OCC)cc3CCN2C(=O)[C@H]2C[C@@H](CC(=O)O)C2)cc1F [Example 18, (cis-3-(((1R)-6-ethoxy-1-((4-(1-ethoxy-2-methylpropan-2-yl)-3,5-difluorophenyl)carbamoyl)-3,4-dihydroisoquinolin-2(1H)-yl)carbonyl)cyclobutyl)acetic acid]	80				
			COc1ccc2c(n1)CCN(C(=O)[C@H]1C[C@H](CC(=O)O)C1)[C@H]2C(=O)Nc1cc(F)c2c(c1)CCC2(C)C [Example 20, (trans-3-(((5R)-5-((7-fluoro-1,1-dimethyl-2,3-dihydro-1H-inden-5-yl)carbamoyl)-2-methoxy-7,8-dihydro-1,6-naphthyridin-6(5H)-yl)carbonyl)cyclobutyl)acetic acid]		99			
80	101	101	COCc1ccc2c(c1)CCN(C(=O)[C@H]1C[C@H](CC(=O)O)C1)[C@H]2C(=O)Nc1cc(F)c2c(c1)CCC2(C)C [Example 24, (trans-3-(((1R)-1-((7-fluoro-1,1-dimethyl-2,3-dihydro-1H-inden-5-yl)carbamoyl)-6-(methoxymethyl)-3,4-dihydroisoquinolin-2(1H)-yl)carbonyl)cyclobutyl)acetic acid]	92.7				
			COc1ccc2c(c1)CCN(C(=O)[C@H]1C[C@@H](CC(=O)O)C1)[C@H]2C(=O)Nc1cc(F)c([Si](C)(C)C)c(F)c1 [Example 25, (cis-3-(((1R)-1-((3,5-difluoro-4-(trimethylsilyl)phenyl)carbamoyl)-6-methoxy-3,4-dihydroisoquinolin-2(1H)-yl)carbonyl)cyclobutyl)acetic acid]		92	93	101	102
			COc1ccc2c(c1)CCN(C(=O)[C@H]1C[C@@H](C(=O)O)C1)[C@H]2C(=O)Nc1ccc([Si](C)(C)C)c(F)c1 [Example 32, cis-3-(((1R)-1-((3-fluoro-4-(trimethylsilyl)phenyl)carbamoyl)-6-methoxy-3,4-dihydroisoquinolin-2(1H)-yl)carbonyl)cyclobutanecarboxylic acid]		83	91	101	102
